Series [1] relates to S. aureus NCTC 8325. The experiment in a line: MIC, S. aureus NCTC 8325 (CLSI broth microdilution / agar dilution). The class given is cell-based, Staphylococcus aureus. Background: Dilution methods test growth across graded concentrations, often in twofold steps.
Series [2] deals with S. aureus NCTC 8325. Description: Intracellular ATP leakage (ATPlite one-step). The class given is cell-based, Staphylococcus aureus. The conditions noted are these: 4×MIC for 15 min. On the procedure:
FIG. 6. Intracellular ATP leakage of S. aureus treated with SC5005, SC5035 and antibiotics. […] Data was presented as percentage of intracellular ATP level to that of untreated bacteria cells (considered as 100%). Bars represent the mean, and error bars represent the SD (n=3). ***: p-value <0.001
To investigate whether SC5005 and SC5035 also act on bacterial cell membrane, intracellular ATP levels of S. aureus treated with SC5005, SC5035 and antibiotics for 15 min was determined by using ATPlite one-step assay kit.

Series [3] has as its system S. aureus NCTC 8325. Description: Membrane integrity (SYTO 9 / propidium iodide staining). It counts as cell-based, Staphylococcus aureus. The conditions noted are these: 4×MIC (Triton X-100: 10%) for 15 minutes. The text has this: FIG. 7. Membrane integrity of S. aureus after SC5005, SC5035 and five common antibiotics treatment. […] SYTO 9, a green fluorescence dye, stains chromosome of all bacteria cells, regardless of the membrane integrity. In contrast, propidium iodide (PI), a red fluorescence dye, only stains cell with damaged membrane. Thus, bacteria cell with intact membrane can only be stained by SYTO 9, and cell with perforated membrane will be stained by both fluorescence dyes, showing a yellow color in merged images.
To further validate the action mechanism of SC5005 and SC5035, two fluorescence dyes were used for evaluation of membrane integrity of drug treated S. aureus. The propidium iodide dye only stains cells with perforated membrane, while the SYTO 9 stains all cells in spite of membrane integrity.

In series [4] the test system is S. aureus NCTC 8325. The experiment in a line: Biosynthesis of macromolecules (3H precursor incorporation). The class given is cell-based, Staphylococcus aureus. The settings on record: 4×MIC for 1 h. How it is done:
FIG. 5. Effect of SC5005 and SC5035 on the biosynthesis of macromolecules in S. aureus. […] Meanwhile, ofloxacin (1 mg/L), rifampicin (1 mg/L), erythromycin (2 mg/L), and vancomycin (2 mg/L) were used as control inhibitors for the biosynthesis of DNA, RNA, protein and cell wall, respectively. Data are means of three independent experiments. Error bars represent the SD.
To investigate the mode of action of SC5005, a new derivative, SC5035, with better selectivity of antibacterial activity over cytotoxicity was included in the assays. First, the impacts of these two compounds on the biosynthesis of important macromolecules, including DNA, RNA, protein and cell wall, in S. aureus NCTC 8325 were assessed. Bacteria cells were incubated with [^3H]thymidine to assess DNA synthesis, [^3H] uridine to assess RNA synthesis, [^3H] leucine to assess protein synthesis, and [^3H] N-Acetyl-D-glucosamine to assess cell wall synthesis. The ofloxacin, rifampicin, erythromycin and vancomycin were used as control inhibitor for DNA, RNA, protein, and cell wall biosynthesis, respectively. Inhibition of biosynthesis pathway was determined by a reduction in the radial isotope signal of bacteria.

The test system of the next series is human red blood cells. Description: Hemolytic activity. The class given is cell-based. The conditions noted are these: 1 h, concentration up to 128-fold of MIC against S. aureus. How it is done:
FIG. 9. Hemolytic activities of SC5005 and SC5035 on human red blood cell. Human red blood cells were incubated with SC5005 (A) and SC5035 (B) for 1 h followed by measuring the absorption of RBC released hemoglobin at 540 nm with microplate reader. Cell treated with 1% triton X-100 serves as positive control (P.C.; 100% hemolysis), and those treated with normal saline serves as negative control (N.C.) Bars represent the mean, and error bars represent the SD (n=3).
As data shown above, SC5005 and SC5035 can kill bacteria via forming pore in bacterial membrane. To see whether the pore-forming activity of these two compounds is specific for bacterial membrane, the hemolytic activities of these two agents on human red blood cells were accessed.

The test system of another series is MRSA ATCC 33592. The experiment in a line: MIC, MRSA ATCC 33592. It counts as cell-based, methicillin-resistant Staphylococcus aureus. The conditions noted are these: Staphylococcus aureus.
Another series has as its system Human HT-29 cells. Description: LDH release assay (membrane integrity). It counts as cell-based. The settings on record: 1 hour, concentration up to 128-fold of MIC against S. aureus. On the procedure: FIG. 10. Membrane integrity of human cells treated with SC5005 and SC5035. Human HT-29 cells were treated with SC5005 and SC5035 for 1 hour followed by the evaluation of membrane integrity with LDH release assay. LDH released from HT-29 cells into culture medium was assessed by using CytoTox 96 NonRadioactive Cytotoxicity Assay. Cell treated with 1% triton X-100 serves as positive control (100% release). Bars represent the mean, and error bars represent the SD (n=3).
To further validate the activity of SC5005 and SC5035 on the membrane of human cells, the integrity of cellular membrane of cells treated with these two compounds was assessed by using LDH release assay. Human HT-29 cells were treated with SC5005 and SC5035 for 1 hour, and then the LDH released from cell into culture medium was assayed.
On the technique in general: Release of lactate dehydrogenase indicates damage to the cell membrane.

The test system of series [5] is MRSA (ATCC 43300). The experiment in a line: Minimal biofilm eradication concentration, MRSA in the biofilm. It counts as cell-based, methicillin-resistant Staphylococcus aureus. The settings on record: MRSA (ATCC 43300) in the biofilm. How it is done:
A biofilm is composed of attached microorganisms enclosed in an extracellular polymeric substance matrix. Bacteria embedded in the biofilm are protected from antibiotic-mediated killing and the immune response. Reports have shown that biofilm formation is an important factor contributing to S. aureus infections of the skin, lung and indwelling medical devices such as catheters. Thus, the effect of SC5005 on MRSA in a biofilm was assayed.

Series [6] concerns MRSA (ATCC 43300). Description: MIC, MRSA ATCC 43300. The conditions noted are these: Staphylococcus aureus. It counts as cell-based, methicillin-resistant Staphylococcus aureus.
The subject of the next series is MRSA SCCmec VT. Description: MIC, MRSA SCCmec VT. It counts as cell-based, methicillin-resistant Staphylococcus aureus. The settings on record: Staphylococcus aureus.
Series [7] relates to S. epidermidis ATCC 12228. Description: MIC, S. epidermidis ATCC 12228. The conditions noted are these: Staphylococcus epidermidis, ATCC12228. It counts as cell-based.
In series [8] the test system is S. aureus NCTC 8325. The class given is cell-based, Staphylococcus aureus.
For series [9], the system named is S. epidermidis ATCC 35984. The experiment in a line: MIC, S. epidermidis ATCC 35984. It counts as cell-based. The conditions noted are these: Staphylococcus epidermidis, ATCC35984; S. epidermidis ATCC 35984; read-out: MIC.
For a further series, the system named is MRSA ATCC 49476. Description: MIC, MRSA ATCC 49476. The class given is cell-based, methicillin-resistant Staphylococcus aureus. The conditions noted are these: Staphylococcus aureus.
A further series deals with HEK-293. Description: Antiproliferative activity, HEK-293. The class given is cell-based, human. The settings on record: HEK-293, antiproliferative. On the procedure: (§1) In addition to the antibacterial activities, the cytotoxic effects of these malonate derivatives on human cancer cell lines were also assessed.
Another series has as its system K-562. The experiment in a line: Antiproliferative activity, K-562. The settings on record: K-562, antiproliferative. The class given is cell-based, human. On the procedure:
as §1

Series [10] deals with clinical isolated VISA strain. The experiment in a line: MIC, VISA. It counts as cell-based, vancomycin-intermediate Staphylococcus aureus.
The test system of the next series is VRSA (SJC1200). Description: MIC, VRSA. The class given is cell-based, vancomycin-resistant Staphylococcus aureus.
[11] abbreviates: MRSA (ATCC 43300), read-out: MIC.

This note sets out measurements from patent US10800732B2, “Substituted malonamides and their use as antibacterial drugs” (National Taiwan University, priority 2015, dated 2020).

Converted amounts (≈) assume the structure as drawn. Like-named read-outs stand apart in the source and are kept apart here.

`O=C(Nc1cc(Cl)cc(Cl)c1)C(CCCl)C(=O)Nc1ccc(Cl)c(C(F)(F)F)c1` (stereo not shown) [SC5035, N^1-(4-chloro-3-(trifluoromethyl)phenyl)-2-(2-chloroethyl)-N^3-(3,5-dichlorophenyl)malonamide]: the MIC (commonly the least concentration at which growth counts as inhibited) was found to be 0.25 mg/L (≈ 0.512 µM) in the series on S. aureus NCTC 8325 [1] (Staphylococcus aureus, MSSA NCTC 8325, Table 6, read-out: MIC) and 0.25 mg/L (≈ 0.512 µM) with MRSA ATCC 33592 (MRSA ATCC 33592, Table 6, read-out: MIC). Further, the “intracellular ATP levels” value with S. aureus NCTC 8325 [2] is on record as “significantly dropped”. For the same molecule, the “propidium iodide staining (membrane integrity)” value with S. aureus NCTC 8325 [3] is reported as “can be stained by propidium iodide”. Also, in the series with S. aureus NCTC 8325 [4], the “incorporation signal in DNA, RNA, protein and cell wall biosynthesis” value is “lower signal in all four macromolecule biosynthesis pathway”. For the same molecule, in the series on human red blood cells, the “hemolysis of RBC” value is “no significant hemolysis”. Further, in the series with Human HT-29 cells, the “LDH level released into culture medium” value was “no significant increase in the LDH level”.
For the molecule `CCCCCCCCCC(=O)N[C@@H](Cc1c[nH]c2ccccc12)C(=O)N[C@H](CC(N)=O)C(=O)N[C@@H](CC(=O)O)C(=O)N[C@@H]1C(=O)NCC(=O)N[C@@H](CCCN)C(=O)N[C@@H](CC(=O)O)C(=O)N[C@H](C)C(=O)N[C@@H](CC(=O)O)C(=O)NCC(=O)N[C@H](CO)C(=O)N[C@@H]([C@H](C)CC(=O)O)C(=O)N[C@@H](CC(=O)c2ccccc2N)C(=O)O[C@@H]1C` [Daptomycin], in the series with MRSA (ATCC 43300) [5], the MBEC is recorded as 1024 mg/L. Further, in the series on MRSA (ATCC 43300) [6] (setting [11]), the MIC was found to be 0.5 mg/L (≈ 0.309 µM).
Regarding `CC(=O)NC[C@H]1CN(c2ccc(N3CCOCC3)c(F)c2)C(=O)O1` [Linezolid], the results for the MBEC with MRSA (ATCC 43300) [5] and with MRSA (ATCC 43300) [5] (listed as linezolid) were greater than 1024 mg/L and 1024 mg/L, respectively. Moreover, the MIC in the series on MRSA (ATCC 43300) [6] (setting [11]) worked out at 1 mg/L (≈ 2.96 µM).
On to `CC1(C)S[C@@H]2[C@H](NC(=O)[C@H](N)c3ccccc3)C(=O)N2[C@H]1C(=O)O` [Ampicillin], for which the MIC with S. aureus NCTC 8325 [1] (Staphylococcus aureus, NCTC8325, S. aureus NCTC 8325, read-out: MIC) was 0.25 mg/L (≈ 0.715 µM); in the series on MRSA SCCmec VT (MRSA SCCmec VT, read-out: MIC) it was 64 mg/L (≈ 183 µM); in series [7] (S. epidermidis ATCC 12228, read-out: MIC), 32 mg/L (≈ 91.6 µM); with MRSA ATCC 33592 (MRSA ATCC 33592, read-out: MIC), greater than 64 mg/L; in [9], greater than 32 mg/L; in the series on MRSA ATCC 49476 (MRSA ATCC 49476, read-out: MIC) it was greater than 64 mg/L. The “time to over 64-fold MIC change” value with S. aureus NCTC 8325 [8] (sub-inhibitory concentration, serial passage) is on record as no more than 27 days.
As to `CCOC(=O)C1=C(N)Oc2ccc(Cl)cc2C1C(C#N)C(=O)OCC` (stereo not shown) [SC79], the figures for the IC50 with HEK-293 and in the series on K-562 were 2.22 mg/L (≈ 6.09 µM) and 1.78 mg/L (≈ 4.88 µM), respectively. For the same molecule, the MIC against S. aureus NCTC 8325 [1] (S. aureus NCTC 8325, Table 2) was 0.5 mg/L (≈ 1.37 µM).
Consider Triton X-100 [reference compound], for which the “propidium iodide staining (membrane integrity)” value in the series on S. aureus NCTC 8325 [3] is recorded as “can be stained by propidium iodide”.
For `CN[C@H](CC(C)C)C(=O)N[C@H]1C(=O)N[C@@H](CC(N)=O)C(=O)N[C@H]2C(=O)N[C@H]3C(=O)N[C@H](C(=O)N[C@H](C(=O)O)c4cc(O)cc(O)c4-c4cc3ccc4O)[C@H](O)c3ccc(c(Cl)c3)Oc3cc2cc(c3O[C@@H]2O[C@H](CO)[C@@H](O)[C@H](O)[C@H]2O[C@H]2C[C@](C)(N)[C@H](O)[C@H](C)O2)Oc2ccc(cc2Cl)[C@H]1O` [Vancomycin, reference compound], the MIC in the series with S. aureus NCTC 8325 [1] (S. aureus (NCTC 8325), Table 3) was determined as 0.5 mg/L (≈ 0.345 µM); against S. aureus NCTC 8325 [1] (Staphylococcus aureus, NCTC8325) it was 0.5 mg/L (≈ 0.345 µM); against MRSA SCCmec VT (MRSA), 1 mg/L (≈ 0.69 µM); in [7] it was 1 mg/L (≈ 0.69 µM); in the series on MRSA (ATCC 43300) [6], 1 mg/L (≈ 0.69 µM); against MRSA ATCC 33592, 1 mg/L (≈ 0.69 µM). The MIC stood at 4 mg/L (≈ 2.76 µM) in series [10] (Staphylococcus aureus, VISA); 1 mg/L (≈ 0.69 µM) against MRSA ATCC 49476; 512 mg/L (≈ 353 µM) in the series with VRSA (SJC1200) (Staphylococcus aureus, VRSA). Moreover, the MBEC is on record as 1024 mg/L with MRSA (ATCC 43300) [5] and greater than 1024 mg/L with MRSA (ATCC 43300) [5] (listed as vancomycin). Moreover, the “increase in the value of MIC” value in [10] (VISA compared to vancomycin-susceptible S. aureus (VSSA)) is listed as 4 fold. Also, the “fold MIC change (resistance)” value in the series with S. aureus NCTC 8325 [8] (sub-inhibitory concentration for 30 consecutive days) is listed as 4 fold. In the series on VRSA (SJC1200) (VRSA compared to VSSA), the “decrease in the susceptibility” value is on record as “over five-hundred decrease in the susceptibility”.
